Activity calls are given as the source filed them.
Columns and labels:
[1] = target: T1, Sentrin-specific protease 8 (Homo sapiens, UniProt Q96LD8); type: functional
T1 sequence (Q96LD8 whole entry): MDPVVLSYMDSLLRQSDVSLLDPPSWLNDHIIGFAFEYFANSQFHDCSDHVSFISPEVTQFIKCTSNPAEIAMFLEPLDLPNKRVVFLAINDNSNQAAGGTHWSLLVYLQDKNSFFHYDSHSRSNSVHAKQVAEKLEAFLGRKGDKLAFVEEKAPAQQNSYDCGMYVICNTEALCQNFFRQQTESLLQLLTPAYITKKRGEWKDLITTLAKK

[2] = target: T1, Sentrin-specific protease 8; type: functional; remark: listed apart in the source
INS1 = assay: INS-1E survival protection against cytokine death – cell-based, luminescence, retest, dose response (AID 449756); type: functional; conditions: Rattus norvegicus;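 also: cell death triggered by IL-1 beta plus TNF-alpha plus IFN-gamma mixture; protective hits raise ATP signal compared with cytokine alone wells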
[3] = luciferase reporter signal suppression in cells – H4 neuroglioma cells, luminescence, dose response (AID 1990); type: functional, cell-based
[4] = target: T2, Heat shock factor protein 1 (Mus musculus, UniProt P38532); assay: enhancement of HSF1-driven luciferase signal – cell-based, NIH3T3, luminescence, dose retest, confirmation (AID 435004); type: functional;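 also: stress induced by proteasome inhibitor MG132 added 30 min after compound; luciferase reporter driven by HSF1 response element in NIH3T3 cells; actives raise luminescence as potentiators of the MG132 stress response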
T2 sequence (P38532 whole entry): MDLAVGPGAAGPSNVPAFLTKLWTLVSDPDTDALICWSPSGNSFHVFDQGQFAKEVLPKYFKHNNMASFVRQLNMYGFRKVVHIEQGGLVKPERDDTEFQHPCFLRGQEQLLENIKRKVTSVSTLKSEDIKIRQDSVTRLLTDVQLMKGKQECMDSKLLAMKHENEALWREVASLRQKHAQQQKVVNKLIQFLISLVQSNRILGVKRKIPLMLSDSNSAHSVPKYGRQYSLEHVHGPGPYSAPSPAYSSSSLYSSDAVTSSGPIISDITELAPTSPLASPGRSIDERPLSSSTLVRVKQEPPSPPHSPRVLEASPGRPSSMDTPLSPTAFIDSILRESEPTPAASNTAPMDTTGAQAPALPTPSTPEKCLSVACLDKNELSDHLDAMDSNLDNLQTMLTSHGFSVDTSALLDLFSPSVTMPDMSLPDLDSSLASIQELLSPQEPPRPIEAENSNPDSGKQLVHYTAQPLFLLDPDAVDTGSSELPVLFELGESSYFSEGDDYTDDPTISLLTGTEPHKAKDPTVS

Hexokinase HKDC1 = target: T3, Hexokinase HKDC1 (Homo sapiens, UniProt Q2TB90); assay: inhibition of HKDC1 glucose phosphorylation – biochemical, W721R variant, dose response (AID 504729); type: functional
T3 sequence (Q2TB90 whole entry): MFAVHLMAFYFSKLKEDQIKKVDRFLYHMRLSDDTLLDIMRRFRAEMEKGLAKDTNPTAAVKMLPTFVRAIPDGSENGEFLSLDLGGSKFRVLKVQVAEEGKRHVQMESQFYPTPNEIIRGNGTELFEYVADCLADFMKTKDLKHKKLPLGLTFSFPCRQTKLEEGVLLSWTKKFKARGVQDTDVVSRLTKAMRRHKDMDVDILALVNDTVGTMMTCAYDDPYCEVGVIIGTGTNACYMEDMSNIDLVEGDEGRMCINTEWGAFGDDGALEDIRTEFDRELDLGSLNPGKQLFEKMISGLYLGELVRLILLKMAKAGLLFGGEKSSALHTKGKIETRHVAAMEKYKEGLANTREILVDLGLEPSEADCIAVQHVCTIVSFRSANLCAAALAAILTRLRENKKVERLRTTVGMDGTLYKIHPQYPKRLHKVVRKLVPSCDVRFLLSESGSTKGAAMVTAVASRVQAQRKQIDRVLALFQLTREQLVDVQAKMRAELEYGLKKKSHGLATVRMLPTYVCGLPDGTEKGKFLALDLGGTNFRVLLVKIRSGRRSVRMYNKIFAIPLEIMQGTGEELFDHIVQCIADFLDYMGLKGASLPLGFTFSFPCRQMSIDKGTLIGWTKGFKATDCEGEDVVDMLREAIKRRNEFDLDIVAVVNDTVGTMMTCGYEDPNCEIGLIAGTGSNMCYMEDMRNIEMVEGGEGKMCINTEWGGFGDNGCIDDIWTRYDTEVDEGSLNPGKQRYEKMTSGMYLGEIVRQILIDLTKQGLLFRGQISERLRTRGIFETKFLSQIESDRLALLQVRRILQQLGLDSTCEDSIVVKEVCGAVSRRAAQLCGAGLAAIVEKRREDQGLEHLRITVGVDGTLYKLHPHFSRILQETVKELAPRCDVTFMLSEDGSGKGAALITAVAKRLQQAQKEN

Genome polyprotein = Genome polyprotein (dengue virus type 2, UniProt P29990); assay: flavivirus cap methylation enzyme inhibition – biochemical, confirmation dose response, primary screen (AID 588689); type: functional
Genome polyprotein, sequence (P29990 2492-3391 limits assumed): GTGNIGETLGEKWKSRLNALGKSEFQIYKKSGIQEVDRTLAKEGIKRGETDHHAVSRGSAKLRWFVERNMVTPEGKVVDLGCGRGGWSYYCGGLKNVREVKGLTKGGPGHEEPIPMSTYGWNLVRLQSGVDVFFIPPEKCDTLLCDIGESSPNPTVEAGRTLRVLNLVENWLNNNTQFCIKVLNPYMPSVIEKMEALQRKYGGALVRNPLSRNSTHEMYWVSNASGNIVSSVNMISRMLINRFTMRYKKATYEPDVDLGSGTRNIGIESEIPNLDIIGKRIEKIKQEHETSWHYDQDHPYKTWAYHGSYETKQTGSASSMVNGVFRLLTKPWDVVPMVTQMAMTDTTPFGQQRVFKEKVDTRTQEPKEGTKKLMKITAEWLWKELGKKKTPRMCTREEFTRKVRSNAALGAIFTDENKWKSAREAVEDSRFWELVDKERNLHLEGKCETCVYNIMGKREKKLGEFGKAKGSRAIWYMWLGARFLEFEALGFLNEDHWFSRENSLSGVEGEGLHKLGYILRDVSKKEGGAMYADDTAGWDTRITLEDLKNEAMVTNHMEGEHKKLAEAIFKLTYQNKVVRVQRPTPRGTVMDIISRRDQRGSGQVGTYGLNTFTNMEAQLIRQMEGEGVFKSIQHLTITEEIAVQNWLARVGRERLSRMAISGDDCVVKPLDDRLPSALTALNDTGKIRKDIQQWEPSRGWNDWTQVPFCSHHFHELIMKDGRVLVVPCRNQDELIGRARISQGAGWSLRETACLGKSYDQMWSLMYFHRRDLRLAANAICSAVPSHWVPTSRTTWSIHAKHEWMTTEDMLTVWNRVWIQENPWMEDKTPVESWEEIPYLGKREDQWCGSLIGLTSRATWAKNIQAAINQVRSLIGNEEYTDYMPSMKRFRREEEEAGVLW

SUMO-activating enzyme = SUMO-activating enzyme (Homo sapiens, UniProt Q9UBT2); assay: blockers of UBC9-mediated SUMO conjugation – biochemical, AlphaScreen, SUMOylation inhibitor project, confirmation (AID 2018); type: functional
SUMO-activating enzyme, sequence (Q9UBE0 whole entry): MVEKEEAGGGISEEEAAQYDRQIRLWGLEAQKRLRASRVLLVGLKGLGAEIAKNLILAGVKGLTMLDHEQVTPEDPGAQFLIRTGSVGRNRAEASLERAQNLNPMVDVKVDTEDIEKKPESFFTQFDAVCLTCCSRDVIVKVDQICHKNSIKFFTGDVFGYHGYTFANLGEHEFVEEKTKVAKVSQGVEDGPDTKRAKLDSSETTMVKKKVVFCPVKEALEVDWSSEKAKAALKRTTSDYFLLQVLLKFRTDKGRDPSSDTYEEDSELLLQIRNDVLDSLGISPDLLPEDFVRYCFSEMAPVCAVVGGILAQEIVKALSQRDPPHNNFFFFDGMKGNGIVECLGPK
SUMO-activating enzyme, sequence (Q9UBT2 whole entry): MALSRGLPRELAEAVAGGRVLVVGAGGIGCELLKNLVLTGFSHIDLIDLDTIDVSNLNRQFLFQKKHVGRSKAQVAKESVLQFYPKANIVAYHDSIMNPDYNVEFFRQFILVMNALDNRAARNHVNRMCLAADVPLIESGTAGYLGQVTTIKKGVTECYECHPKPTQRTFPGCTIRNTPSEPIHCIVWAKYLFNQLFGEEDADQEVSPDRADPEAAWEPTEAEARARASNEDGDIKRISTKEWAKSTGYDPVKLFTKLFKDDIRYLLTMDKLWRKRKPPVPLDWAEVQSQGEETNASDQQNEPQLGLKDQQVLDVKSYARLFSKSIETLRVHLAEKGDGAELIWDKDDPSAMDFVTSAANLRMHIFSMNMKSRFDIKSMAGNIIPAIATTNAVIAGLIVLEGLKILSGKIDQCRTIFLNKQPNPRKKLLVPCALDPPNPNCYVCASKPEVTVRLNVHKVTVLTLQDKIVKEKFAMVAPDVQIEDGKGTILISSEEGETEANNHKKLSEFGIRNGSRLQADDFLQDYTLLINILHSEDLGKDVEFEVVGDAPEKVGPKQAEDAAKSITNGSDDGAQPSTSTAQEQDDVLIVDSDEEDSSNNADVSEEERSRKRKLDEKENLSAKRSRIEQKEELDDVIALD

COc1ccc(NC(=S)Nc2ccc3nsnc3c2)cc1
IC50 [1]: 2.3 µM (active)
IC50 [2]: 6.61 µM (active)

CC(C)(C)c1cc[n+](C2=C([N-]S(=O)(=O)c3ccccc3)C(=O)c3ccccc3C2=O)cc1
AC50 (INS1): 14.5 µM (active)
EC50 [3]: > 120 µM (not active)

O=C1C=C(Nc2ccccc2C(=O)O)c2ccccc2C1=O
EC50 [4]: 133 µM (active)
IC50 (Hexokinase HKDC1): 12.4 µM (active)
IC50 (Genome polyprotein): > 100 µM (active)
IC50 (SUMO-activating enzyme): 1.9 µM (active)
